Key:
[1] = target: T1, Purified GPIIbIIIa (Homo sapiens, UniProt P05106+P08514); assay: GPIIbIIIa (fibrinogen) enzyme-linked immunoassay (ELISA); details: purified human platelet GPIIbIIIa binding to immobilized fibrinogen; read-out: GPIIbIIIa (Fibrogen ELISA IC50)
T1 construct: GPIIbIIIa was purified from human platelets; from tissue; host or cells: human platelets
Protocol: GPIIbIIIa Enzyme-Linked Immunoassay
Low solubility fibrinogen, prepared as described by Lipinska et al., J. Lab. Clin. Med., 84, 509-516 (1974) (human, KABI) was immobolized at 5 μg/well on Immunolon 2-96 well plates (inculated overnight at 4° to bind to the wells). The wells were blocked with 0.5% bovine serum albumin in buffer A ([…] Tris-HCl, pH 7.5, 2 mM CaCl2, 120 mM […], and 0.02% NaN3) for two hours at room temperature. All subsequent steps were carried out at room temperature. The wells were washed three times with buffer A plus 0.5% Tween 20 (BioRad). Purified GPIIbIIIa (2 μg/well) plus synthetic peptides supplements at the indicated concentrations were conincubated for 90 to 120 min with immobilized fibrinogen. The wells were washed as above, then the anti-GPIIbIIIa monoclonal antibody, CD41a, was added to each well and incubated for 60 min. After another three washes, goat anti-mouse horseradish peroxidase conjugate was added to each well (60 min). The wells were washed three times with buffer A plus detergent, followed by two washes with buffer A minus detergent. The peroxidase substrate, 3,3',5,5'-tetramethylbenzidine (Kirkegaard and Perry Laboratories, Inc.) was added to the wells for color development. The reaction was stopped with 0.3N H2 SO4, and absorbances were measured at 450 mn using a microplate reader (Multiscan II, Flow-Titertek).
GPIIbIIIa was purified from human platelets as described by Fitzgerald, et al., Anal. Biochem., 151, 169-177 (1985), except that the final gel purification step was performed with an HW55 size exclusion column (Waters, Advanced Protein Purification System), instead of Sephacryl S-300. The protein, greater than 90% pure as assessed by SDS polyacrylamide gel electrophoresis, was stored at -80° C. in small aliquots.

[2] = target: human platelets (Homo sapiens, UniProt P05106+P08514); assay: 125I-Fibrinogen binding to platelets; details: 0.1 μM 125I-fibrinogen, thrombin or activator peptide stimulus
Protocol: Preparation of Human Platelets
Human blood was collected by venipuncture in tubes containing one-tenth volume of acid-citrate-dextrose as an anticoagulant. Platelet-rich plasma was prepared by centrifugation of the blood for 10 min at 500 g at room temperature. The platelet-rich plasma was decanted and one-tenth volume of acid-citrate-dextrose was added followed by centrifugation at 1000 g at room temperature for 10 min to sediment the platelets. The platelets were suspended in two ml modified Tyrode's buffer (2 M NaCl, 0.5 M dextrose, 0.2 M NaHCO3, 0.1 M KCl, 0.1 M MgCl2, 0.1 M NaH2 PO4 and 0.1 M HEPES, pH 7.3) containing 0.35% bovine serum albumin and then filtered on a 50 ml column of Sepharose 2B (Pharmacia) equilibrated with Tyrode's buffer. Finally, the platelets were counted in an automated hematology analyzer.
Human low solubility fibrinogen (Kabi) was prepared as described previously (Lipinska et al., 1974). For ^125 I labeling, fibrinogen (1 mg) was incubated with three Iodo-Beads (Pierce Chemical Co.) and 1 mCi of Na^125 I for 15 min after with ^125 I-fibrinogen was separated from free radioactivity by filtration through a PD-10 column (Pharmacia). The specific activity was approximately 1-5×10^17 CPM/mol fibrinogen.
Binding of fibrinogen to human platelets was performed as described by Plow and Ginsberg (1981). Binding assays contained, in a volume of 0.2 ml, 1-2×10^7 platelets, 0.1 μM ^125 I-fibrinogen, 2 mM CaCl2 and 0.1 U/ml thrombin or various concentrations of activator peptides as a stimulus. Incubations were carried out in 1.2 ml Eppendorf microcentrifuge tubes at room temperature for 30 min and then duplicate 75 μl aliquots were layered onto 0.4 ml of 20% sucrose in Tyrode's buffer containing 1% bovine serum albumin and platelets were sedimented by centrifugation at 10,000 g for 5 min in a Beckman microcentrifuge. Tips of the centrifuge tubes were amputated and bound ^125 I-fibrinogen was measured in a gamma counter (LKB/Pharmacia). Nonspecifically bound radioactivity was determined in incubations in which activators were excluded and these values were 1-5% of those obtained with thrombin activation.

[3] = target: Human platelet rich plasma (PRP) (Homo sapiens, UniProt P05106+P08514); details: read-out: Platelet Aggregation ADP Induced IC50, ADP (1 μM)
Protocol: Platelet Aggregation In Vitro
Human platelet rich plasma (PRP) was prepared by centrifugation at 200×g for 10 min. at room temperature. Platelet poor plasma (PPP) was prepared by centrifugation at 2000×g for 10 min. PRP was exposed only to plastic laboratory ware. All experiments were completed within 3 hr of blood collection. Platelet aggregation was measured photometrically using a Chrono-log dual channel aggregometer (Chrono-log Corp., Haverstown, Pa. 19083). One hundred percent light transmission was defined with autologus PPP. Percent maximal change in light transmission was determined from PRP following addition of ADP (1 μM) or thrombin. […] MDL 102,530 was incubated with PRP (0.45 ml) for 30 sec prior to the addition of ADP or thrombin. Aggregation was measured in a total volume of 0.5 ml. Inhibitory responses were expressed s percent inhibition when compared to a control value. The concentration resulting in 50% inhibition of aggregation (IC50) was calculated by simple linear regression.

human platelets, sequence (P08514 32-1039): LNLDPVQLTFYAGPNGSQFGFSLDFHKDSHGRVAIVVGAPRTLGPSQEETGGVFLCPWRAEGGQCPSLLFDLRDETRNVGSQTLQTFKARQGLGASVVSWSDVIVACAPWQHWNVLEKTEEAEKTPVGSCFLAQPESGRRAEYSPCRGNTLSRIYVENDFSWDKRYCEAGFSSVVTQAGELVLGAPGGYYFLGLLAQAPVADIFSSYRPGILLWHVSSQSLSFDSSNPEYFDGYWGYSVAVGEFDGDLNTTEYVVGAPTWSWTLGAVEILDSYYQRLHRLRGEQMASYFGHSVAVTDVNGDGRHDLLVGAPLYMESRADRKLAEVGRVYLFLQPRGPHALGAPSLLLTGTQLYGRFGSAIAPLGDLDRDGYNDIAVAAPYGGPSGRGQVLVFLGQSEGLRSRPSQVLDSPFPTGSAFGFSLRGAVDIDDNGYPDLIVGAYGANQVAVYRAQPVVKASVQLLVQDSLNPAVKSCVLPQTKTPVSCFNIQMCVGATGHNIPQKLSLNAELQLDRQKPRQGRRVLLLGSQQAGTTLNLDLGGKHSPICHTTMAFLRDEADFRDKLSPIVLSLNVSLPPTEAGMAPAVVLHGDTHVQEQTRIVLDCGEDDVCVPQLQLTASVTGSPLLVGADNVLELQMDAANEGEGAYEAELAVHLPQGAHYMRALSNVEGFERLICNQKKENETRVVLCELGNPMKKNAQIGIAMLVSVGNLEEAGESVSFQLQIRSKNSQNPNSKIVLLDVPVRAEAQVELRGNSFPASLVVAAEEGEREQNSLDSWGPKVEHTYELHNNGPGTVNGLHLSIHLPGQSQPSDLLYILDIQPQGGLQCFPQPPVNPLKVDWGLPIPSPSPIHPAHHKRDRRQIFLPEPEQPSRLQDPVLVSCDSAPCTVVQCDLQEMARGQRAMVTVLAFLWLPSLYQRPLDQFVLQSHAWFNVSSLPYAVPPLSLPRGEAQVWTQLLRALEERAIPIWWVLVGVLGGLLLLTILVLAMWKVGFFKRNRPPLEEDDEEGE
human platelets, sequence (P05106 27-788): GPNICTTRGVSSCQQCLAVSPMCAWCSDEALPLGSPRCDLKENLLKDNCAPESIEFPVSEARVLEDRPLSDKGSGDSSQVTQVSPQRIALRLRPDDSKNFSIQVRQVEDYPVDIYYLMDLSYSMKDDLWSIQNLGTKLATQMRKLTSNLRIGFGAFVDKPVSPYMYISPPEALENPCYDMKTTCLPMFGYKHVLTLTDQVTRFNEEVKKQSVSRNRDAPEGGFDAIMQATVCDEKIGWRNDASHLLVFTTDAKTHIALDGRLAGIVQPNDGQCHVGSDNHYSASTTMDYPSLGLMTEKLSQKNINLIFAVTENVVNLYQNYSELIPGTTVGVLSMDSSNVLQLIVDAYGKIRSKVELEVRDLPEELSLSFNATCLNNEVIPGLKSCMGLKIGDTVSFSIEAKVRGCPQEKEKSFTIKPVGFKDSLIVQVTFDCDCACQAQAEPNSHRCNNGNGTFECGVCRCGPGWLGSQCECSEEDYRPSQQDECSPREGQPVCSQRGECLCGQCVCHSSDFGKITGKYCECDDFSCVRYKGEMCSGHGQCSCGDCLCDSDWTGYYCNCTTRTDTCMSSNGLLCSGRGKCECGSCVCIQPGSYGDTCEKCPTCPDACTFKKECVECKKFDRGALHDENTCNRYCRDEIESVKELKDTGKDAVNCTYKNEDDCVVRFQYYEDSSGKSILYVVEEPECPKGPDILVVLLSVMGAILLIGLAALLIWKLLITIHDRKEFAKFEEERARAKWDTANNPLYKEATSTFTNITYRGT
T1 sequence (P08514 32-887 limits assumed): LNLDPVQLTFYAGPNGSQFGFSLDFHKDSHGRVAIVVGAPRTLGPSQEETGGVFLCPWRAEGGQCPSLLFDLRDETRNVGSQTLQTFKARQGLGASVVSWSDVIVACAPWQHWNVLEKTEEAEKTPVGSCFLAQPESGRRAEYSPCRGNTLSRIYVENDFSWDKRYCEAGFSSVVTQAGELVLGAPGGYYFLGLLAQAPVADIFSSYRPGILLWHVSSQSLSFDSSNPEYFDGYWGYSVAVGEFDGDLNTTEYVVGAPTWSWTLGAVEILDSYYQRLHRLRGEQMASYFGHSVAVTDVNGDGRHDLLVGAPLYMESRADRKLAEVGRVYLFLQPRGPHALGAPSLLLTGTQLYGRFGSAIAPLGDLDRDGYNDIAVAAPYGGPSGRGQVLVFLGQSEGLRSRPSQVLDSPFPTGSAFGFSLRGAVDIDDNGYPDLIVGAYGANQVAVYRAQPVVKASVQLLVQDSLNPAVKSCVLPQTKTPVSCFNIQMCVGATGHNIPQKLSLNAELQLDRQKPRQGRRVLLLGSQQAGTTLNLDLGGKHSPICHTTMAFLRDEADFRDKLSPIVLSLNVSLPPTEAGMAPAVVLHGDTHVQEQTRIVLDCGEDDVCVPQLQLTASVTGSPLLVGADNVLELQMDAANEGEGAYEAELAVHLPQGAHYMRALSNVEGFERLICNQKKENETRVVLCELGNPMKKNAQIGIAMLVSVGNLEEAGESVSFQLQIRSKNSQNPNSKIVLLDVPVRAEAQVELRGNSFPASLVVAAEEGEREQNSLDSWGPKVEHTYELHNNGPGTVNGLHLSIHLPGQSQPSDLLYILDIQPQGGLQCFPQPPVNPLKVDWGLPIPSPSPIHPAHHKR
T1 sequence (P08514 891-1039 partner limits assumed): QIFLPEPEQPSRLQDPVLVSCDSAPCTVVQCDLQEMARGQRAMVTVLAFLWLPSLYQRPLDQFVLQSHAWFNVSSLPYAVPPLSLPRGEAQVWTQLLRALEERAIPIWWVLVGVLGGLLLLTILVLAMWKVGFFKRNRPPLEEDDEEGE
T1 sequence (P05106 27-788): as the sequence (P05106 27-788) above
Human platelet rich plasma (PRP), sequence (P08514 32-1039): as the sequence (P08514 32-1039) above
Human platelet rich plasma (PRP), sequence (P05106 27-788): as the sequence (P05106 27-788) above

SMILES	IC50 [1]	IC50 [2]	IC50 [3]
C[C@H]1CN(C(=O)CCN)[C@@H](CCCNC(=N)N)C(=O)NCC(=O)N[C@@H](CC(=O)O)C(=O)N[C@H](C(=O)NCc2ccccc2)CCC(=O)N1 [III]	3000 nM	2400 nM	49.2 µM
C[C@H]1CN(CCCc2ccccc2)[C@@H](CCCNC(=N)N)C(=O)NCC(=O)N[C@@H](CC(=O)O)C(=O)N[C@H](C(=O)NCc2ccccc2)CCC(=O)N1 [IV]	300 nM	270 nM	6.4 µM
C[C@H]1CN[C@@H](CCCNC(=N)N)C(=O)NCC(=O)N[C@@H](CC(=O)O)C(=O)N[C@H](C(=O)NCc2ccccc2)CCC(=O)N1 [I]	200 nM	2400 nM	–
C[C@H]1CN(CCCC(=O)O)[C@@H](CCCNC(=N)N)C(=O)NCC(=O)N[C@@H](CC(=O)O)C(=O)N[C@H](C(=O)NCc2ccccc2)CCC(=O)N1 [II]	540 nM	1200 nM	–

From patent publication US6107275A, “Cyclic Antiplatelet peptides with pseudo-bond” (Merrell Pharmaceuticals Inc., priority 1997, dated 2000)
